According to patent publication US20090062388A1, “Use of acetyl L-carnitine for the preparation of a medication for the preventive therapy for pain” (Sigma-Tau Industrie Farmaceutiche Riunite S.p.A., priority 2001, published 2009):

Tests used:
Male Swiss Webster mice [1] = assay: Hot-plate test (thermal stimulus), licking latency; assay type: in vivo
Method: The first experiment was the hot-plate test.
Male Swiss Webster mice weighing between 22 and 30 g were used.
The test was carried out according to O'Callaghan and Holtzman in J. Pharmacol. Exp. Ther. 197: 533-537, 1976.
According to this test, a stainless steel container is to be placed in a bain-marie at a temperature of 52.5° C.
The mouse was removed from the hot plate immediately upon the first sign of painful stimulus. The maximum latency time registered on the hot plate was 45 seconds.
The values of analgesia were determined at 15 minute-intervals.

Male Swiss Webster mice [2] = assay: Sleep induction test with pentobarbital; assay type: in vivo
Method: In the sleep induction test with pentobarbital, the duration of the loss of the […] reflex was measured in the mice treated with pentobarbital (60 mg/kg IP).

Male Swiss Webster mice [3] = assay: Kainic acid-induced hyperalgesia (hot plate); assay type: in vivo
Method: According to this test, the hyperalgesia—determined in the mice through the hot plate test—is induced by a solution of kainic acid (20 mg/kg, IP).

Male Swiss Webster mice [4] = assay: Hole board test (spontaneous motility, exploratory activity); assay type: in vivo; details: 14-day sub-chronic treatment SC 100 mg/kg BID; 5 minutes on board
Method: In the hole board test, the […] movements were recorded by two separate photocell systems, which recorded both the movements on the board (spontaneous motility) and how many times the mouse put its head into the holes on the surface (exploratory activity).
The mice were placed on the board one at a time and left free to explore both the surface and the holes for 5 minutes.

Male Swiss Webster mice [5] = assay: Hyperalgesia induced by morphine withdrawal syndrome (hot plate)
Male Swiss Webster mice [6] = assay: Rota-rod test (motor coordination); assay type: in vivo
Method: The rota rod test was carried out by means of an apparatus consisting of a platform and a 3 cm-diameter rotating rod (16-20 r.p.m.) with a non-slipping surface.
The integrity of the animals' motor coordination was determined according to the capacity of the mice to keep their balance on the rotating rod.
At various intervals after the treatment, the parameter considered was the number of falls of the animal within a 30 second-observation (Vaught et al., Neuropharmacol., 24: 211, 1985).

[7] = pentobarbital 60 mg/kg IP, Acetyl L-carnitine 100 mg/kg BID SC 7 days, Piracetam 30 mg/kg IP

For `CC(=O)O[C@H](CC(=O)[O-])C[N+](C)(C)C` [Acetyl L-carnitine, acetyl L-carnitine], the “Hot plate Licking latency” value (Male Swiss Webster mice [1]; 7-day sub-chronic treatment SC 100 mg/kg BID, 45 min after treatment) was 22.2 ± 1.7^ sec, the “Hot plate Licking latency” value (Male Swiss Webster mice [1]; 7-day sub-chronic treatment SC 100 mg/kg BID, before treatment) was 21.8 ± 1.1^ sec and the “Hot plate Licking latency” value (Male Swiss Webster mice [1]; 14-day sub-chronic treatment SC 100 mg/kg BID, 15 min after treatment) was 22.1 ± 2.7 s. The “Hot plate Licking latency” value (Male Swiss Webster mice [1]; 14-day sub-chronic treatment SC 100 mg/kg BID, 30 min after treatment) was 22.5 ± 2.1 s, the “Hot plate Licking latency” value (Male Swiss Webster mice [1]; 14-day sub-chronic treatment SC 100 mg/kg BID, 45 min after treatment) was 23.4 ± 2.9 s and the “Hot plate Licking latency” value (Male Swiss Webster mice [1]; 14-day sub-chronic treatment SC 100 mg/kg BID, before treatment) was 22.4 ± 1.4 s. For the same compound, the “Hot plate Licking latency” value (Male Swiss Webster mice [1]; 7 days after the end of the 14-day-treatment 100 mg/kg BID, 15 min after treatment) was 21.1 ± 1.9^ sec, the “Hot plate Licking latency” value (Male Swiss Webster mice [1]; 7 days after the end of the 14-day-treatment 100 mg/kg BID, 30 min after treatment) was 18.5 ± 1.8 s and the “Hot plate Licking latency” value (Male Swiss Webster mice [1]; 7 days after the end of the 14-day-treatment 100 mg/kg BID, 45 min after treatment) was 19.0 ± 2.3 s. For the same compound, the “Hot plate Licking latency” value (Male Swiss Webster mice [1]; 7 days after the end of the 14-day-treatment 100 mg/kg BID, before treatment) was 19.2 ± 1.6^ sec, the “antinociceptive action in hot-plate test” value (Male Swiss Webster mice [1]; 7 days after the last 14 day-series of injections, 100 mg/kg BID SC) was “persisted even 7 days after the last 14 day-series of injections” and the “Hot plate Licking latency” value (Male Swiss Webster mice [1]; Acute SC treatment 100 mg/kg, 15 min after treatment) was 17.3 ± 1.7 s. The “Hot plate Licking latency” value (Male Swiss Webster mice [1]; Acute SC treatment 100 mg/kg, 30 min after treatment) was 16.8 ± 1.2 s, the “Hot plate Licking latency” value (Male Swiss Webster mice [1]; Acute SC treatment 100 mg/kg, 45 min after treatment) was 15.2 ± 1.7 s and the “Hot plate Licking latency” value (Male Swiss Webster mice [1]; Acute SC treatment 100 mg/kg, before treatment) was 13.9 ± 0.7 s. The “Hot plate Licking latency” value (Male Swiss Webster mice [1]; SC acute treatment 30 mg/kg, 15 min after treatment) was 15.8 ± 1.8 s, the “Hot plate Licking latency” value (Male Swiss Webster mice [1]; SC acute treatment 30 mg/kg, 30 min after treatment) was 16.5 ± 2.0 s and the “Hot plate Licking latency” value (Male Swiss Webster mice [1]; SC acute treatment 30 mg/kg, 45 min after treatment) was 15.0 ± 2.1 s. For the same compound, the “Hot plate Licking latency” value (Male Swiss Webster mice [1]; SC acute treatment 30 mg/kg, before treatment) was 14.2 ± 0.9 s, the “protective effect in hot-plate test” value (Male Swiss Webster mice [1]; acute SC administration 100 mg/kg) was “did not exert any protective effect” and the “Hot plate Licking latency” value (Male Swiss Webster mice [1]; single SC treatment 100 mg/kg, 1 h after treatment) was 15.8 ± 2.2 s. For the same compound, the “Hot plate Licking latency” value (Male Swiss Webster mice [1]; single SC treatment 100 mg/kg, 2 h after treatment) was 14.7 ± 1.5 s, the “Hot plate Licking latency” value (Male Swiss Webster mice [1]; single SC treatment 100 mg/kg, 3 h after treatment) was 15.6 ± 1.9 s and the “Hot plate Licking latency” value (Male Swiss Webster mice [1]; single SC treatment 100 mg/kg, 4 h after treatment) was 14.1 ± 2.0 s. For the same compound, the “Hot plate Licking latency” value (Male Swiss Webster mice [1]; single SC treatment 100 mg/kg, 6 h after treatment) was 15.2 ± 1.9 s, the “Hot plate Licking latency” value (Male Swiss Webster mice [1]; single SC treatment 100 mg/kg, 8 h after treatment) was 14.9 ± 1.6 s and the “Hot plate Licking latency” value (Male Swiss Webster mice [1]; single SC treatment 100 mg/kg, before treatment) was 14.5 ± 0.9 s. The “pain threshold in hot-plate test” value (Male Swiss Webster mice [1]; solution 3 mg/ml in bottle for 7 and 14 days) was “no increase in the pain threshold was observed”, the “effect on pentobarbital sleep duration and induction times” value (Male Swiss Webster mice [2]; 100 mg/kg BID SC for 7 days, pentobarbital 60 mg/kg IP 24 hours after end of treatments) was “neither affected the duration of sleep nor the induction times” and the “SLEEP Duration” value (Male Swiss Webster mice [2]; [7]) was 23.5 ± 3.4 min. For the same compound, the “SLEEP Induction time” value (Male Swiss Webster mice [2]; [7]) was 3.3 ± 2.1 min, the “reversal of kainic acid-induced hyperalgesia” value (Male Swiss Webster mice [3]; 7-day repeated administration started 48 hours after kainic acid 20 mg/kg IP (FIG. 6)) was “capable to revert the hyperalgesia” and the “reversal of kainic acid-induced hyperalgesia” value (Male Swiss Webster mice [3]; single administration (FIG. 6bis)) was “no anti-hyperalgesic effect”. For the same compound, the “EXPLORATORY ACTIVITY No. of movements” value (Male Swiss Webster mice [4]) was 52.3 ± 6.5, the “LOCOMOTOR ACTIVITY No. of explorations” value (Male Swiss Webster mice [4]) was 24.0 ± 5.1 and the “reversal of hyperalgesia induced by morphine withdrawal syndrome” value (Male Swiss Webster mice [5]; one single administration, 5 hours and 30 minutes from replacement of morphine with water (FIG. 5bis)) was “not after one single administration”. The “reversal of hyperalgesia induced by morphine withdrawal syndrome” value (Male Swiss Webster mice [5]; repeated treatment 100 mg/kg BID, IP or SC for 7 days (FIG. 5)) was “capable of reverting the hyperalgesia”, the “Motor coordination (rota-rod)” value (Male Swiss Webster mice [6]; 100 mg/kg BID, SC or IP for 7 and 14 days) was “not different from motor coordination of the control mice” and the “ROTA-ROD No. of falls in 30 seconds” value (Male Swiss Webster mice [6]; 7-day sub-chronic treatment IP 100 mg/kg BID, 15 min after treatment) was 2.2 ± 0.4. For the same compound, the “ROTA-ROD No. of falls in 30 seconds” value (Male Swiss Webster mice [6]; 7-day sub-chronic treatment IP 100 mg/kg BID, 30 min after treatment) was 1.5 ± 0.3, the “ROTA-ROD No. of falls in 30 seconds” value (Male Swiss Webster mice [6]; 7-day sub-chronic treatment IP 100 mg/kg BID, 45 min after treatment) was 1.1 ± 0.3 and the “ROTA-ROD No. of falls in 30 seconds” value (Male Swiss Webster mice [6]; 7-day sub-chronic treatment IP 100 mg/kg BID, before treatment) was 3.6 ± 0.5. For the same compound, the “ROTA-ROD No. of falls in 30 seconds” value (Male Swiss Webster mice [6]; 14-day sub-chronic treatment IP 100 mg/kg BID, 15 min after treatment) was 2.9 ± 0.3, the “ROTA-ROD No. of falls in 30 seconds” value (Male Swiss Webster mice [6]; 14-day sub-chronic treatment IP 100 mg/kg BID, 30 min after treatment) was 1.7 ± 0.4 and the “ROTA-ROD No. of falls in 30 seconds” value (Male Swiss Webster mice [6]; 14-day sub-chronic treatment IP 100 mg/kg BID, 45 min after treatment) was 1.0 ± 0.3. For the same compound, the “ROTA-ROD No. of falls in 30 seconds” value (Male Swiss Webster mice [6]; 14-day sub-chronic treatment IP 100 mg/kg BID, before treatment) was 3.9 ± 0.5.
